The source of these data is paper PMC8284440, “Toward New Transmission-Blocking Combination Therapies: Pharmacokinetics of 10-Amino-Artemisinins and 11-Aza-Artemisinin and Comparison with Dihydroartemisinin and Artemether” (Antimicrobial Agents and Chemotherapy, 2021).

The subject of series [1] is late stage (>90% stage IV and V) P. falciparum NF54 gametocytes. The note with it: cited from earlier work.
Series [2] can be described thus: Pharmacokinetics in mice, oral administration. The note with it: for bioavailability / Cmax / Tmax: male, C57/BL6, mouse, plasma; for bioavailability: 50 mg/kg; for bioavailability / F: oral bioavailability, p.o. 50 mg/kg vs i.v. 10 mg/kg; for Cmax / Tmax / AUC: p.o. 50 mg/kg, parent; for AUC: 0 h to last. It counts as in vivo, male C57/BL6 mice. Here is the method: (i) Animals. Healthy male C57/BL6 mice each weighing approximately 25 g were used. The mice maintained at the University of Cape Town animal facility were housed in 27 by 21 by 18 cm cages, under controlled environmental conditions at 22 ± 2°C and a 12-h light/dark cycle. Humidity was monitored and ranged between 55 and 70%. Food and water were available ad libitum. Mice were acclimatized to their environment for 7 days before experiments were initiated.
(ii) Oral drug administration. Each of artemether, the amino-artemisinins 5 to 10, and 11-aza-artemisinin 11 (12.5 mg) was dissolved in 0.2 ml DMSO, to which 1.8 ml 0.5% (wt/vol) HPMC in water was then added. Compounds were administered orally via gavage at a dose of 50 mg/kg (n = 3). Dosing volumes were calculated based on the weight of each mouse in the respective group. The dosing volumes ranged between 160 μl and 200 μl, ensuring that the dose remained at 50 mg/kg. Blood samples for amino-artemisinins 5 to 8 and 10 were collected via tail-bleeding predose and at 0.08, 0.25, 0.5, 1, 2, and 4 h. Blood samples for the phenylurea 9 and 11-aza-artemisinin 11 were collected at 0.08, 0.5, 1, 2, 4, 8, and 24 h postdose. Samples were placed in 0.5 ml lithium heparin micro vials to prevent blood coagulation. […] The samples were immediately centrifuged at 5,590 × g for 5 min and the plasma was transferred to new microvials. The plasma samples were stored at −80°C.
(§1) Sample extraction. […] The organic layer was then transferred and evaporated under a gentle stream of nitrogen at room temperature for 30 min. The dried samples were reconstituted in mobile phase, and a 5 μl sample was injected for LC-MS/MS analysis. The only exception was the arylurea 10, for which no liquid-liquid extraction was conducted; instead, the 200 μl acetonitrile solution was evaporated under a gentle stream of nitrogen at room temperature. The dried sample was reconstituted in the mobile phase, and a 5 μl sample was injected for LC-MS/MS analysis. The plasma samples for each compound from the in vivo studies were extracted by mixing 350 μl ethyl acetate with 15 μl of plasma sample and 35 μl of universal buffer containing internal standard at pH 8. The samples were vortexed for 1 min and centrifuged for 5 min, and the organic layer was then transferred and evaporated under a gentle stream of nitrogen at room temperature for 30 min. The dried samples were each reconstituted in the mobile phase, and a 5 μl sample was injected for LC-MS/MS analysis.
(§2) LC-MS/MS analysis. For all the artemisinins except the arylurea 10, gradient chromatography was performed on a Phenomenex (Torrance, CA, USA) Luna PFP(2) analytical column (100 Å, 5 μm, 2 by 50 mm) and an AB Sciex API 5500 mass spectrometer which was operated at unit resolution in the multiple reaction monitoring (MRM) mode. The HPLC method used was a gradient method with 5 mM ammonium acetate and 0.1% acetic acid in water as the aqueous phase and a mixture of acetonitrile and methanol (1:1 vol/vol) containing 5% of the aqueous phase as the organic phase ([89]). The arylurea 10 was analyzed using a Phenomenex Gemini NX-C18 (5 μm, 2.1 mm by 50 mm) column with an AB Sciex 3200 QTRAP mass spectrometer operated at unit resolution in the MRM mode. The HPLC method used was a gradient method with 5 mM ammonium acetate and 0.1% acetic acid in water as the aqueous phase and a mixture of acetonitrile and methanol (1:1 vol/vol). The transitions of the molecular ions were monitored, as listed in Table S8 in the supporting information. The calibration range was between 0.002 μg/ml and 6.250 μg/ml.

The next series in a line: Kinetic solubility. It counts as physicochemical. Here is the method:
For kinetic solubility assays, three solutions with differing pH were prepared. Phosphate-buffered saline (PBS) was prepared by mixing KH2PO4 (0.2 g), K2HPO4 (0.115 g), NaCl (0.8 g), and KCl (0.2 mg) in purified water (100 ml). The pH was measured and adjusted using 0.05 M HCl or 0.05 M NaOH to pH 7.4. The pH 2 solution was prepared by adding HCl (37%, 83 μl) to purified water (50 ml). FaSSIF buffer at pH 6.5 was prepared by adding KH2PO4 (2.042 g) and KCl (3.728 g) to purified water (450 ml) and adjusting the pH to 6.5 using 0.05 M HCl or 0.05 M NaOH as required. Simulated intestinal fluid (SIF) (Biorelevant, London, UK) powder (5.6 mg) was then added to the buffer (25 ml) to complete the process.
(i) Kinetic solubility. Duplicate stock solutions of each compound at a concentration of 10 mM in DMSO were prepared in a 96-well plate in PBS at pH 7.4, water at pH 2, and FaSSIF buffer at pH 6.5 to a final concentration of 200 μM ([68]). These three solutions mimic the pH and conditions of the gastrointestinal tract. As the FaSSIF buffer mimics the fasted state in vitro, solubility in this buffer provides a guide as to whether compounds should be dosed with or without meals ([87]). Calibration standards were prepared for each compound in DMSO at 11, 100, and 220 μM. These standards were used to produce a calibration curve required for calculation of the concentration of each compound in the test solutions. […] Plates were agitated on a plate shaker for 2 h (500 rpm, 22°C). Sample analysis was carried out by liquid chromatography-tandem mass spectrometry (LC-MS/MS) analysis as described in “Sample analysis” below. Peak areas were integrated, and calibration curves were constructed and used to calculate the concentrations of each compound in the three buffers.
as §1, §2

Where [3] appears, read: Table S3, ± SEM, ref 1 and 2 (supplement; main text 47, 48), read-out: Late Stage (LG, Luc 72 h) IC50.
[4] abbreviates: FaSSIF buffer, 22 °C, pH 6.5, fassif, kinetic from dmso stock, read-out: Solubility FaSSIF pH 6.5.
Where [5] appears, read: PBS, 22 °C, pH 7.4, aqueous buffer, kinetic from dmso stock, read-out: Solubility pH 7.4.
Where [6] appears, read: pH 2 solution (HCl in water), 22 °C, pH 2, kinetic from dmso stock, read-out: Solubility pH 2.
[7] abbreviates: metabolite formed from p.o. artemiside 5, 50 mg/kg.
Setting [8] is: Table S4, n = 1, ref 4 (supplement; main text 62), read-out: Late stage IC50 (Luciferase 72 h).

In brackets after ≈: the same amount, converted by molar mass. Like-named read-outs stand apart in the source and are kept apart here. Where only a bound is given, the exact number is not on record here.

`C[C@H]1[C@@H](O)O[C@@H]2O[C@@]3(C)CC[C@H]4[C@H](C)CC[C@@H]1[C@@]24OO3` [DHA 2, dihydroartemisinin]: the IC50 (in general, the concentration that gives 50% inhibition) in series [1] (setting [3]) is 33.7 ± 1.98 nM. Besides, in series [2] (metabolite formed from p.o. artemether 3, 50 mg/kg), the AUC of metabolite was 77 ± 12 min/µmol/L.
Turning to `C[C@H]1[C@H](N2CCS(=O)(=O)CC2)O[C@@H]2O[C@@]3(C)CC[C@H]4[C@H](C)CC[C@@H]1[C@@]24OO3` [Artemisone 6, artemisone], in series [1] (setting [3]), the half-maximal inhibitory concentration (IC50) is 42.4 ± 3.3 nM. For the same compound, the solubility – broadly, how much of the substance goes into solution per volume – at 2 h in “Kinetic solubility” (setting [4]) came out at 74.4 µM (≈ 29.9 µg/mL). Also, in “Kinetic solubility” (setting [5]), the solubility at 2 h turned out to be 120 µM (≈ 48.3 µg/mL). The solubility at 2 h in the series “Kinetic solubility” (setting [6]) was 73.7 µM (≈ 29.6 µg/mL). Further, in series [2] (po), the bioavailability (commonly the share of a dose that reaches the circulation, judged against a reference dose that is usually intravenous) is 32%; the Cmax (in general, the maximum level reached in the sampled fluid or tissue) came out at 8000 ± 800 nM; the Tmax – broadly, the time from dosing to the highest level – turned out to be 18 ± 6 min. Also, the AUC of metabolite in series [2] (setting [7]) was determined as 101.5 ± 49 min/µmol/L. In addition, in series [2], the F came out at 34 ± 7.5% and the AUC came out at 922.7 ± 348 min/µmol/L.
Consider `CO[C@H]1O[C@@H]2O[C@@]3(C)CC[C@H]4[C@H](C)CC[C@@H]([C@H]1C)[C@@]24OO3` [Artemether 3, artemether], for which, in series [1] (setting [8]), the IC50 was 224 nM. In series [2] (po), the bioavailability came out at 2 ± 0.6%, the Cmax worked out at 600 ± 200 nM and the Tmax is 6 min. The AUC in series [2] stood at 32.3 ± 20 min/µmol/L.
With `C[C@H]1[C@H](N2CCSCC2)O[C@@H]2O[C@@]3(C)CC[C@H]4[C@H](C)CC[C@@H]1[C@@]24OO3` [Artemiside 5, artemiside], the IC50 in series [1] (setting [3]) was 1.5 ± 0.5 nM. Also, the figures for the solubility at 2 h in “Kinetic solubility” (setting [4]), in the series “Kinetic solubility” (setting [5]) and in “Kinetic solubility” (setting [6]) were less than 5 µM, less than 5 µM and 12.4 µM (≈ 4.58 µg/mL), respectively. The bioavailability in series [2] (po) turned out to be 1 ± 0.2%. Besides, the Cmax in series [2] (po) was 100 ± 10 nM. For the same compound, in series [2] (po), the Tmax was found to be 60 ± 54 min. In series [2], the AUC turned out to be 9.5 ± 2.5 min/µmol/L.
Turning to `C[C@H]1[C@H](N2C=CS(=O)(=O)CC2)O[C@@H]2O[C@@]3(C)CC[C@H]4[C@H](C)CC[C@@H]1[C@@]24OO3` [M1 12], the solubility at 2 h in “Kinetic solubility” (setting [4]) is 57.6 µM (≈ 23 µg/mL); in the series “Kinetic solubility” (setting [5]), 74.5 µM (≈ 29.8 µg/mL); in “Kinetic solubility” (setting [6]), greater than 150 µM. Moreover, the AUC of metabolite in series [2] (setting [7]) is 20.8 ± 8 min/µmol/L; in series [2] (metabolite formed from p.o. artemisone 6, 50 mg/kg), 173.3 ± 51.7 min/µmol/L.
For the compound `C[C@H]1[C@H](NS(N)(=O)=O)O[C@@H]2O[C@@]3(C)CC[C@H]4[C@H](C)CC[C@@H]1[C@@]24OO3` [Sulfamide 7], the IC50 in series [1] (setting [3]) was 419 nM. In addition, the solubility at 2 h in the series “Kinetic solubility” (setting [4]) was less than 5 µM. The solubility at 2 h in “Kinetic solubility” (setting [5]) amounted to 11.5 µM (≈ 4.17 µg/mL). Further, in “Kinetic solubility” (setting [6]), the solubility at 2 h was greater than 150 µM. Moreover, in series [2] (po), the bioavailability came out at 59%, the Cmax came out at 21700 ± 1200 nM and the Tmax turned out to be 36 ± 12 min. In series [2], the F is 59.3 ± 11.6% and the AUC is 2,562.3 ± 499 min/μmol/liter.
For the compound `C[C@@H]1CC[C@H]2[C@@H](C)C(=O)N[C@@H]3O[C@@]4(C)CC[C@@H]1[C@]32OO4` [11-Aza-artemisinin 11, 11-aza-artemisinin], the IC50 in series [1] (setting [8]) is 166 nM. The solubility at 2 h in “Kinetic solubility” (setting [4]) was greater than 150 µM; in “Kinetic solubility” (setting [5]) it was 144 µM (≈ 40.6 µg/mL); in “Kinetic solubility” (pH 2, FaSSIF pH 6.5 and pH 7.4 together, read-out: Solubility in the three aqueous solutions), greater than 144 µM; in “Kinetic solubility” (setting [6]), greater than 150 µM. In addition, the bioavailability was 7% in series [2] (oral) and 14% in series [2] (po). Further, in series [2] (po), the Cmax turned out to be 2600 ± 10 nM. Besides, the Tmax in series [2] (po) was found to be 30 min. In series [2], this compound came in with an F of 7.15 ± 0.3%. For the same compound, the AUC in series [2] was determined as 154.9 ± 10 min/µmol/L.
Turning to `C[C@H]1[C@H](N2CCN(C(=O)Nc3ccc(F)cc3)CC2)O[C@@H]2O[C@@]3(C)CC[C@H]4[C@H](C)CC[C@@H]1[C@@]24OO3` [Arylurea 10], the IC50 in series [1] (setting [3]) is 17 ± 7 nM. Also, the values for the solubility at 2 h in the series “Kinetic solubility” (setting [4]), in “Kinetic solubility” (setting [5]) and in the series “Kinetic solubility” (setting [6]) were 24 µM (≈ 11.8 µg/mL), 27 µM (≈ 13.2 µg/mL) and 10 µM (≈ 4.9 µg/mL), respectively. This compound yielded a bioavailability in series [2] (po) of 17.5 ± 3.1%. For the same compound, the Cmax in series [2] (po) worked out at 2300 ± 300 nM. The Tmax in series [2] (po) turned out to be 30 min. For the same compound, the AUC in series [2] came to 276.5 ± 48.4 min/µmol/L.
